Molecular target: Human Constitutive (Hu C-20S) β5 Active Subunit (Homo sapiens, UniProt P28074)
Assay: IC50 determination, human constitutive 20S proteasome β5c (suc-LLVY-AMC hydrolysis)
Type: biochemical
Details: Table 3; IC50 against human constitutive β5 active subunit; read-out: Hu-C20S β5

| SMILES | IC50 |
| --- | --- |
| CC[C@H]1CCCCN1C(=O)C[C@H](NC(=O)CCC(C)C)C(=O)N[C@@H](C)c1ncc(-c2ccc(F)cc2F)[nH]1 [CEN-100, N—((S)-1-(((S)-1-(5-(2,4-Difluorophenyl)-1H-imidazol-2-yl)ethyl)amino)-4-((S)-2-ethylpiperidin-1-yl)-1,4-dioxobutan-2-yl)-4-methylpentanamide] | 4.4 µM |
| Cc1cc(C(=O)N[C@@H](CC(=O)N2CCCCC2C)C(=O)N[C@@H](C)c2ncc(-c3ccccc3)[nH]2)no1 (stereo partly drawn) [CEN-117, 5-Methyl-N-((2S)-4-(2-methylpiperidin-1-yl)-1,4-dioxo-1-(((S)-1-(5-phenyl-1H-imidazol-2-yl)ethyl)amino)butan-2-yl)isoxazole-3-carboxamide] | 11 µM |
| CC[C@H]1CCCCN1C(=O)C[C@H](NC(=O)CCc1ccccc1)C(=O)N[C@@H](C)c1nc2c(F)cccc2[nH]1 [CEN-20, (S)-4-((S)-2-Ethylpiperidin-1-yl)-N—((S)-1-(4-fluoro-1H-benzo[d]imidazol-2-yl)ethyl)-4-oxo-2-(3-phenylpropanamido)butanamide] | 2.6 µM |
| CC[C@H]1CCCCN1C(=O)C[C@H](NC(=O)[C@H]1C[C@@H]1c1ccccc1)C(=O)N[C@@H](C)c1nc2c(F)cccc2[nH]1 [CEN-25, (1S,2S)—N—((S)-4-((S)-2-Ethylpiperidin-1-yl)-1-(((S)-1-(4-fluoro-1H-benzo[d]imidazol-2-yl)ethyl)amino)-1,4-dioxobutan-2-yl)-2-phenylcyclopropane-1-carboxamide] | 8.1 µM |
| C[C@H](NC(=O)[C@H](CC(=O)N1CCCC[C@@H]1C)NC(=O)CCC(C)(C)C)c1ncc(-c2ccc(F)cc2F)[nH]1 [CEN-99, N—((S)-1-(((S)-1-(5-(2,4-Difluorophenyl)-1H-imidazol-2-yl)ethyl)amino)-4-((S)-2-methylpiperidin-1-yl)-1,4-dioxobutan-2-yl)-4,4-dimethylpentanamide] | 8.5 µM |
| CC(C)CCC(=O)N[C@@H](CC(=O)N1CCCC[C@@H]1C)C(=O)N[C@@H](C)c1ncc(-c2ccc(F)cc2F)[nH]1 [CEN-88, N—((S)-1-(((S)-1-(5-(2,4-Difluorophenyl)-1H-imidazol-2-yl)ethyl)amino)-4-((S)-2-methylpiperidin-1-yl)-1,4-dioxobutan-2-yl)-4-methylpentanamide] | 15.1 µM |
| CC(C)CCC(=O)N[C@@H](CC(=O)N(C)C(C)C)C(=O)N[C@@H](C)c1ncc(-c2ccc(F)cc2F)[nH]1 [CEN-78, (S)—N1-((S)-1-(5-(2,4-Difluorophenyl)-1H-imidazol-2-yl)ethyl)-N4-isopropyl-N4-methyl-2-(4-methylpentanamido)succinamide] | 14.9 µM |
| C[C@H](NC(=O)[C@H](CC(=O)N1CCCC[C@@H]1C)NC(=O)C1CC2(COC2)C1)c1nc2cccc(F)c2[nH]1 [CEN-43, N—((S)-1-(((S)-1-(7-Fluoro-1H-benzo[d]imidazol-2-yl)ethyl)amino)-4-((S)-2-methylpiperidin-1-yl)-1,4-dioxobutan-2-yl)-2-oxaspiro[3.3]heptane-6-carboxamide] | 13.8 µM |
| Cc1cc(C(=O)N[C@@H](CC(=O)N2CCC[C@@H]2c2ccccc2)C(=O)NC(C)c2nc3ccccc3[nH]2)no1 (stereo partly drawn) [CEN-52, N-((2S)-1-((1-(1H-Benzo[d]imidazol-2-yl)ethyl)amino)-1,4-dioxo-4-((R)-2-phenylpyrrolidin-1-yl)butan-2-yl)-5-methylisoxazole-3-carboxamide] | 7.5 µM |
| Cc1cc(C(=O)N[C@@H](CC(=O)N2CCCC[C@@H]2C)C(=O)N[C@@H](C)c2ncc(-c3ccccc3)[nH]2)no1 [CEN-116, 5-Methyl-N—((S)-4-((S)-2-methylpiperidin-1-yl)-1,4-dioxo-1-(((S)-1-(5-phenyl-1H-imidazol-2-yl)ethyl)amino)butan-2-yl)isoxazole-3-carboxamide] | 9.5 µM |
| CC(C)CCS(=O)(=O)N[C@@H](CC(=O)N1CCCC[C@@H]1C)C(=O)N[C@@H](C)c1ncc(-c2ccc(F)cc2F)[nH]1 [CEN-114, (S)—N—((S)-1-(5-(2,4-Difluorophenyl)-1H-imidazol-2-yl)ethyl)-2-((3-methylbutyl)sulfonamido)-4-((S)-2-methylpiperidin-1-yl)-4-oxobutanamide] | 9.7 µM |
| Cc1ncc(C(=O)N[C@@H](CC(=O)N2CCCC[C@@H]2C)C(=O)N[C@@H](C)c2nc3c(F)cccc3[nH]2)s1 [CEN-30, N—((S)-1-(((S)-1-(4-Fluoro-1H-benzo[d]Imidazol-2-yl)ethyl)amino)-4-((S)-2-methylpiperidin-1-yl)-1,4-dioxobutan-2-yl)-2-methylthiazole-5-carboxamide] | 4.5 µM |
| O=C(N[C@@H](CC(=O)N1CCCC1C1CC1)C(=O)NC1(c2nc3cccc(F)c3[nH]2)CC1)C1CC2(C1)CC(F)(F)C2 (stereo partly drawn) [CEN-64, N-((2S)-4-(2-Cyclopropylpyrrolidin-1-yl)-1-((1-(7-fluoro-1H-benzo[d]imidazol-2-yl)cyclopropyl)amino)-1,4-dioxobutan-2-yl)-6,6-difluorospiro[3.3]heptane-2-carboxamide] | 2.4 µM |
| CC(C)CCC(=O)N[C@@H](CC(=O)N1CCC[C@@H]1c1ccccc1)C(=O)N[C@H](C)c1nc2ccccc2[nH]1 [CEN-49, N—((S)-1-(((R)-1-(1H-Benzo[d]imidazol-2-yl)ethyl)amino)-1,4-dioxo-4-((R)-2-phenylpyrrolidin-1-yl)butan-2-yl)-4-methylpentanamide] | 50 µM |
| CC(C)CCS(=O)(=O)N[C@@H](CC(=O)N1CCC[C@@H]1c1ccccc1)C(=O)NC(C)c1nc2ccccc2[nH]1 (stereo partly drawn) [CEN-58, (2S)—N-(1-(1H-Benzo[d]imidazol-2-yl)ethyl)-2-((3-methylbutyl)sulfonamido)-4-oxo-4-((R)-2-phenylpyrrolidin-1-yl)butanamide] | 13.9 µM |
| CC(C)CCC(=O)N[C@@H](CC(=O)N1CCCC[C@@H]1C)C(=O)N[C@@H](C)c1nc2ccccc2[nH]1 [CEN-32, N—((S)-1-(((S)-1-(1H-Benzo[d]imidazol-2-yl)ethyl)amino)-4-((S)-2-methylpiperidin-1-yl)-1,4-dioxobutan-2-yl)-4-methylpentanamide] | 23.5 µM |
| CC[C@H]1CCCCN1C(=O)C[C@H](NC(=O)CCC(C)C)C(=O)N[C@@H](C)c1nc2ccccc2[nH]1 [CEN-28, N—((S)-1-(((S)-1-(1H-Benzo[d]imidazol-2-yl)ethyl)amino)-4-((S)-2-ethylpiperidin-1-yl)-1,4-dioxobutan-2-yl)-4-methylpentanamide] | 14.8 µM |
| Cc1cc(C(=O)N[C@@H](CC(=O)N2CCC[C@@H]2c2ccccc2)C(=O)N[C@@H](C)c2ncc(-c3ccccc3F)[nH]2)no1 [CEN-75, N—((S)-1-(((S)-1-(5-(2-Fluorophenyl)-1H-imidazol-2-yl)ethyl)amino)-1,4-dioxo-4-((R)-2-phenylpyrrolidin-1-yl)butan-2-yl)-5-methylisoxazole-3-carboxamide] | > 100 µM |
| Cc1cc(C(=O)N[C@@H](CC(=O)N2CCC[C@@H]2c2ccccc2)C(=O)N[C@@H](C)c2ncc(-c3ccc(F)cc3F)[nH]2)no1 [CEN-115, N—((S)-1-(((S)-1-(5-(2,4-Difluorophenyl)-1H-imidazol-2-yl)ethyl)amino)-1,4-dioxo-4-((R)-2-phenylpyrrolidin-1-yl)butan-2-yl)-5-methylisoxazole-3-carboxamide] | > 100 µM |
| CC[C@H]1CCCCN1C(=O)C[C@H](NC(=O)C1CC2(CCC2)C1)C(=O)N[C@@H](C)c1nc2c(F)cccc2[nH]1 [CEN-17, N—((S)-4-((S)-2-Ethylpiperidin-1-yl)-1-(((S)-1-(4-fluoro-1H-benzo[d]imidazol-2-yl)ethyl)amino)-1,4-dioxobutan-2-yl)spiro[3.3]heptane-2-carboxamide] | 13.4 µM |
| CC(C)CCC(=O)N[C@@H](CC(=O)N1CCOC[C@@H]1C)C(=O)N[C@@H](C)c1ncc(-c2ccc(F)cc2F)[nH]1 [CEN-92, N—((S)-1-(((S)-1-(5-(2,4-Difluorophenyl)-1H-imidazol-2-yl)ethyl)amino)-4-((S)-3-methylmorpholino)-1,4-dioxobutan-2-yl)-4-methylpentanamide] | 15.2 µM |
| Cc1ccc(S(=O)(=O)N[C@H](C(=O)N[C@@H](C)c2nc3cccc(F)c3[nH]2)[C@@H](C)O)cc1 [CEN-71, (2S,3R)—N—((S)-1-(7-Fluoro-1H-benzo[d]imidazol-2-yl)ethyl)-3-hydroxy-2-((4-methylphenyl)sulfonamido)butanamide] | > 100 µM |
| CC[C@H]1CCCCN1C(=O)C[C@H](NC(=O)N(C)Cc1ccccc1)C(=O)N[C@@H](C)c1nc2c(F)cccc2[nH]1 [CEN-26, (S)-2-(3-Benzyl-3-methylureido)-4-((S)-2-ethylpiperidin-1-yl)-N—((S)-1-(4-fluoro-1H-benzo[d]imidazol-2-yl)ethyl)-4-oxobutanamide] | 3.3 µM |
| C[C@H](NC(=O)[C@H](CC(=O)N1CCC[C@@H]1c1ccccc1)Nc1nc2ccccc2o1)c1ncc(-c2ccccc2F)[nH]1 [CEN-125, (S)-2-(benzo[d]oxazol-2-ylamino)-N—((S)-1-(5-(2-fluorophenyl)-1H-imidazol-2-yl)ethyl)-4-oxo-4-((R)-2-phenylpyrrolidin-1-yl)butanamide] | 20.6 µM |
| Cc1cc(C(=O)N[C@@H](CC(=O)N2CCC[C@@H]2c2ccccc2)C(=O)N[C@@H](C)c2ncc(-c3ccccc3)[nH]2)no1 [CEN-120, N—((S)-1,4-Dioxo-1-(((S)-1-(5-phenyl-1H-imidazol-2-yl)ethyl)amino)-4-((R)-2-phenylpyrrolidin-1-yl)butan-2-yl)-5-methylisoxazole-3-carboxamide] | > 100 µM |
| CC[C@H]1CCCCN1C(=O)C[C@H](NC(=O)C1CC1C(C)C)C(=O)N[C@@H](C)c1nc2c(F)cccc2[nH]1 (stereo partly drawn) [CEN-10, N—((S)-4-((S)-2-Ethylpiperidin-1-yl)-1-(((S)-1-(4-fluoro-1H-benzo[d]imidazol-2-yl)ethyl)amino)-1,4-dioxobutan-2-yl)-2-isopropylcyclopropane-1-carboxamide] | 37.7 µM |
| CC(C)(C)NC(=O)CC[C@H](NC(=O)CCc1ccc(F)cc1)C(=O)NC1(c2nc3cccc(F)c3[nH]2)CC1 [CEN-73, (S)—N5-(tert-Butyl)-N1-(1-(7-fluoro-1H-benzo[d]Imidazol-2-yl)cyclopropyl)-2-(3-(4-fluorophenyl)propanamido)pentanediamide] | > 100 µM |

Source: US11203613B2, “Peptidomimetic proteasome inhibitors” (CORNELL UNIVERSITY, priority 2017, dated 2021)
